Measurements published in patent publication US11129861B2, “Methods for treating inflammatory diseases” (OKCHUNDANG CO., LTD., priority 2017, dated 2021).

What was measured:
mice [1] = assay: Expectorant assay: secondary bronchus histopathology; assay type: in vivo; conditions: 250 mg/kg orally, 11 days; compared with intact vehicle control
Description: AR, KOG and SKOG were orally administered as same as antitussive assay, once a day for 11 days before phenol red treatment. In addition, AM was also dissolved in distilled water as 25 mg/ml concentrations, and orally administered in a volume of 10 ml/kg (as equivalence to 250 mg/kg), once a day for 11 days before phenol red treatment. In intact vehicle control mice, distilled water 10 ml/kg was orally administered, instead of AR, KOG, SKOG or AM to provide same restrain stresses, in the present experiment. Simultaneously, some parts of individual lung (left lateral lobes) were sampled at trachea excisions, and fixed in 10% NBF, and crossly trimmed. Then embedded in paraffin, sectioned (3˜4 μm) and stained with H&E for general histopathology or PAS (periodic acid schiff) for mucous producing cells, and after that the histopathological profiles of each sample were observed under light microscope. […] The histopathologist was blinds to group distribution when this analysis was made, and at least five repeated measurements in same histological specimens prepared were considered to calculate each mean histomorphometrical value, whenever possible, in this histopathological evaluation.

mice [2] = assay: Expectorant assay: mucous secretions by phenol red (TLF OD, body surface redness); assay type: in vivo; conditions: 250 mg/kg orally, 11 days
Description: One-hundred twenty one 6-week male SPF/VAF CrljOri: […] Animals husbandries were conducted as same as antitussive assay. All laboratory animals were treated according to the national regulations of the usage and welfare of laboratory animals, and approved by the Institutional Animal Care and Use Committee in Daegu Haany University (Gyeongsan, Gyeongbuk, Korea) [[…] and SKOG were orally administered as same as antitussive assay, once a day for 11 days before phenol red treatment. In addition, AM was also dissolved in distilled water as 25 mg/ml concentrations, and orally administered in a volume of 10 ml/kg (as equivalence to 250 mg/kg), once a day for 11 days before phenol red treatment. In intact vehicle control mice, distilled water 10 ml/kg was orally administered, instead of AR, KOG, SKOG or AM to provide same restrain stresses, in the present experiment. Mucous secretions were measured by single intraperitoneal injection of 5% phenol red (Junsei Chemical Co. […] After ultrasonic for 15 min using ultrasonicator (Model 5210, Branson Ultrasonics, Danbury, Conn., USA), 1 ml NaHCO3 solution (5%, w/v) add to the normal saline, and optical density of these prepared trachea lavage fluid (TLF) were measured at 546 nm using a microplate reader (Model Sunrise, Tecan, Männedorf, Switzerland) as described previously with some modifications.

[3] = Body weight measurements, expectorant assay; assay type: in vivo, mice; conditions: 250 mg/kg orally
Description: One-hundred twenty one 6-week male SPF/VAF CrljOri: CD1[ICR] mice (OrientBio, Seungnam, Korea; body weight ranged in 29-32 g upon receipt) were prepared, and seven groups of 10 mice each were selected based on the body weights at 7 days after acclimatization based on the body weights (Average:34.75±1.32 g, ranged in 31.6-37.4 g), as follows. Animals husbandries were conducted as same as antitussive assay. All laboratory animals were treated according to the national regulations of the usage and welfare of laboratory animals, and approved by the Institutional Animal Care and Use Committee in Daegu Haany University (Gyeongsan, Gyeongbuk, Korea) [DHU2016-035, Apr. 22, 2016; ANNEX IV].
AR, KOG and SKOG were orally administered as same as antitussive assay, once a day for 11 days before phenol red treatment. In addition, AM was also dissolved in distilled water as 25 mg/ml concentrations, and orally administered in a volume of 10 ml/kg (as equivalence to 250 mg/kg), once a day for 11 days before phenol red treatment. In intact vehicle control mice, distilled water 10 ml/kg was orally administered, instead of AR, KOG, SKOG or AM to provide same restrain stresses, in the present experiment.
Changes of body weights and gains were measured as same methods described in Example 3.

[4] = Body weight measurements, anti-inflammatory assay; assay type: in vivo, mice; conditions: 1 mg/kg orally
Description: (§1) One-hundred thirty two 6-week male SPF/VAF CrljOri:CD1 [ICR] mice (OrientBio, Seungnam, Korea; body weight ranged in 29-32 g upon receipt) were prepared, and eight groups of 10 mice each were selected based on the body weights at 7 days after acclimatization based on the body weights (intact control: 33.88±1.11 g, ranged in 31.8˜35.4 g; Xylene treated mice: 33.85±1.32 g, ranged in 31.1-36.6 g), as follows. Animals husbandries were conducted as same as antitussive and expectorant assays. All laboratory animals were treated according to the national regulations of the usage and welfare of laboratory animals, and approved by the Institutional Animal Care and Use Committee in Daegu Haany University (Gyeongsan, Gyeongbuk, Korea) [DHU2016-036, Apr. 22, 2016; ANNEX V].
AR, KOG and SKOG were orally administered as same as antitussive and expectorant assays, once a day for 11 days before xylene topical applications. In addition, DEXA-water soluble granules were dissolved indistilled water as 1.5 mg/ml concentrations (0.1 mg/ml based on DEXA itself), and also orally administered in a volume of 10 ml/kg (as equivalence to 1 mg/kg based on DEXA itself), once a day for 11 days before xylene topical applications. In intact vehicle and xylene control mice, distilled water 10 ml/kg was orally administered, instead of AR, KOG, SKOG or DEXA to provide same restrain stresses, in the present experiment.
Changes of body weights and gains were measured as same methods described in Example 3 and 4.

[5] = system: xylene topically applied mice; assay: Anti-inflammatory assay: ear histopathology; assay type: in vivo; conditions: 1 mg/kg orally, 11 days; compared with xylene control mice
Description: Acute inflammations were induced by single topical application of 0.03 ml of xylene (Duksan Pure Chemical Co. Ltd., Ansan, Korea) to the anterior surface of the right ear at 1 hour after last 11th test substance administration, as described previously with some modifications. Equal volume of saline was topically applied in intact vehicle mouse ears, instead of xylene, in our experiment.
After ear weight measurement, individual ear samples were fixed in 10% NBF, and crossly trimmed. Then embedded in paraffin, sectioned (3˜4 μm) and stained with Hematoxylin and eosin (H&E) for general histopathology or toluidine blue for mast cells, and after that the histopathological profiles of each sample were observed under light microscope. To more detail changes, mean total, epidermis and dermis thicknesses of the ear anterior surface, numbers of infiltrated inflammatory cells and mast cells on the dermis of ear (cells/mm^2), collagen occupied region percentages on the dermis (%/mm2) were analyzed using a computer assisted image analysis program, according to previously established methods, respectively. The histopathologist was blinds to group distribution when this analysis was made, and at least five repeated measurements in same histological specimens prepared were considered to calculate each mean histomorphometrical value, whenever possible, in this histopathological evaluation.

[6] = system: xylene topically applied mice; assay: Anti-inflammatory assay: xylene-induced ear inflammation, ear weight and gross signs; assay type: in vivo; conditions: 1 mg/kg orally, 11 days; compared with xylene control mice
Description: as §1
AR, KOG and SKOG were orally administered as same as antitussive and expectorant assays, once a day for 11 days before xylene topical applications. […]
Two hours after topical application of xylene, circular sections of induced ear were taken using a cork borer with a 7-mm diameter and weighed as absolute wet-weights, and then the relative weights (% of bodyweights) of the ears were calculated to reduce the differences from individual body weights, as follow Equation [2], in the current experiment. […]

[7] = compared with intact vehicle control
[8] = 11 days, xylene topically applied mice

Nc1c(Br)cc(Br)cc1CN[C@H]1CC[C@H](O)CC1 [AM, ambroxol]
Mean numbers of secondary bronchus epithelial PAS positive mucous producing cells, change (mice [1]): 231.58% | Mean thicknesses of secondary bronchus mucosa, change (mice [1]): 41.69% | body redness (body surface gross findings) (mice [2]; 30 min after intraperitoneal injection of phenol red, vs intact control): dramatic increases of body redness | TLF OD values, change (mice [2]; [7]): 33.95% | Body weight gains (g) [B − A] ([3]; 11 days, expectorant assay): 1.99 ± 0.73 g | Body weights (g) at test material administration First [A] ([3]; 11 days, expectorant assay): 29.23 ± 1.16 g | Body weights (g) at test material administration Last [B] ([3]; 11 days, expectorant assay): 31.22 ± 1.65 g | body weight gains during 11 days, change [3, 7]: 6.42%

C[C@@H]1C[C@H]2[C@@H]3CCC4=CC(=O)C=C[C@]4(C)[C@@]3(F)[C@@H](O)C[C@]2(C)[C@@]1(O)C(=O)CO [DEXA, dexamethasone]
body weight gains during 11 days, change ([4]; 11 days, compared with xylene control mice): −145.10% | Body weight gains (g) [B − A] [4, 8]: −0.92 ± 0.76^ab g | Body weights (g) at test material administration First [A] [4, 8]: 28.72 ± 1.10 g | Body weights (g) at test material administration Last [B] [4, 8]: 27.80 ± 1.66^ab g | body weights during administration period ([4]; from 2 days after initial administration, compared with intact vehicle and xylene control mice): significant (p<0.01 or p<0.05) decreases of body weights | Mean ear dermis thicknesses, change [5]: −60.02% | Mean ear epidermis thicknesses, change [5]: −6.35% | Mean numbers of infiltrated inflammatory cells on the ear dermis, change [5]: −93.13% | Mean numbers of infiltrated mast cells on the ear dermis, change [5]: 647.56% | Mean percentages of collagen occupied regions on the ear dermis, change [5]: 189.63% | Mean total ear thicknesses, change [5]: −62.39% | absolute ear weights, change [6]: −48.52% | relative ear weights, change [6]: −42.61%
